{"source": "paper PMC4355085", "about": "(Cancer discovery, 2014)", "target": "EphA2 (Homo sapiens, UniProt P29317)", "sequence (P29317 24-976)": "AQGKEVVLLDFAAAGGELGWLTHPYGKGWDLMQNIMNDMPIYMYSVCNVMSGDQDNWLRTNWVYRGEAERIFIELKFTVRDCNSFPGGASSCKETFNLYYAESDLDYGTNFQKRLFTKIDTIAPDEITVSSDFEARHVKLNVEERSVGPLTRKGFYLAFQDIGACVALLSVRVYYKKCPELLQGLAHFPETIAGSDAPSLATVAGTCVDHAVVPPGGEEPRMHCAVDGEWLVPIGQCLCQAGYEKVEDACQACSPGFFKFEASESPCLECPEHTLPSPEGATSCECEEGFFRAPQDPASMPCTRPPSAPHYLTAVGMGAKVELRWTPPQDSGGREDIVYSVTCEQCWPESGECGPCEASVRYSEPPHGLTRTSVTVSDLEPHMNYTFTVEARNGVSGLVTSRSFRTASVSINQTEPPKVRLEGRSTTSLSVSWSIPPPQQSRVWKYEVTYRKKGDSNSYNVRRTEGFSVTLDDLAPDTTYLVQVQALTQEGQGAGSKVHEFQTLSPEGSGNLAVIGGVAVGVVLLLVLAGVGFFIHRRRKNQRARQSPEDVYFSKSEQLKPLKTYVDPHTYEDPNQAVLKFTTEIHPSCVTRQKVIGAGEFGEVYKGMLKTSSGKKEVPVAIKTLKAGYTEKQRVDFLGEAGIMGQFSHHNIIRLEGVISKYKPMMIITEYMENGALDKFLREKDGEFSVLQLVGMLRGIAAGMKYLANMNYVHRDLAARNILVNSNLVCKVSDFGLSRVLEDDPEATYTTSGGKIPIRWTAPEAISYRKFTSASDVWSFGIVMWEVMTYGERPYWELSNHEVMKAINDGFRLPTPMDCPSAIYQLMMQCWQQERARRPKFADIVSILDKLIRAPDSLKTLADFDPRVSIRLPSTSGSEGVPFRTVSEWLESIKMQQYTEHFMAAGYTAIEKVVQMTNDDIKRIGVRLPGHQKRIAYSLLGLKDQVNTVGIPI", "experiment": "cell-free kinase assay", "format": "biochemical"}
{"smiles": "CCN1CCN(Cc2ccc(NC(=O)c3ccc(C)c(/C=C/c4cnc5[nH]ccc5c4OC)c3)cc2C(F)(F)F)CC1", "note": "[HG-6-64-1]", "values": [{"measurement": "IC50", "value": 77.1, "unit": "nM"}]}
